From patent publication US10308649B2, “Compounds and methods to suppress autoimmune response” (Oregon State University, priority 2014, dated 2019)

What was measured:
AhR [1] = assay: XRE-luciferase reporter gene in Hepa-1 cells expressing endogenous AhR; assay type: cell-based, mouse; conditions: for XRE-luciferase reporter activity, in words: 16 hours after treating; for fold activation of AhR (reporter gene activity): 10 nM, 12 hours
Procedure: FIGS. 9a-9f illustrate activity studies for 10-Cl-BBQ, 11-Cl-BBQ, and combinations thereof. Hepa-1 cells expressing endogenous AhR were transfected with a xenobiotic responsive element (XRE)-luciferase reporter gene. […] The activity was measured 16 hours after treating the cells with the various concentrations.
The reporter gene activity was measured after 12 hours of treatment with TCDD at a concentration of 1 nM or with the indicated concentrations of AHRL1.
Hepa-1 cells expressing endogenous AhR were transfected with a XRE-luciferase reporter gene. […] The mean luciferase activity is shown with SEM.

[2] = Serum pharmacokinetics after i.p. injection; conditions: mouse
Procedure: FIGS. 13a and 13b show the pharmacokinetics of AHRL1. To determine the half-life of AHRL1, mice were treated with a single intraperitoneal injection of the chemical, and serum concentrations were measured over time by mass spectrometry. In FIG. 13a, C57BL/6 mice were given 10 mg/kg AHRL1 by i.p. injection. Blood was collected at the indicated times by cardiac puncture. The blood serum was processed to remove protein and the samples were analyzed by QTRAP 4000 LC/MS/MS. The blood serum concentration of AHRL1 was determined from a standard curve based on known concentrations of AHRL1.
Based on the model, the serum half-life of AHRL1 is approximately 2 hours. Additional kinetic parameters include the absorption rate constant (ka) which was 1.2 h^−1. […] The area under the concentration-time curve (AUC0-∞) was 102.5 mg/L*h.

AhR [3] = target: T1, AhR (Mus musculus, UniProt P30561); assay: Competitive inhibition of [3H] 3-MC binding to AhR; conditions: for fold lower / less active than TCDD: relative to IC50 of TCDD
T1 sequence (P30561 10-848): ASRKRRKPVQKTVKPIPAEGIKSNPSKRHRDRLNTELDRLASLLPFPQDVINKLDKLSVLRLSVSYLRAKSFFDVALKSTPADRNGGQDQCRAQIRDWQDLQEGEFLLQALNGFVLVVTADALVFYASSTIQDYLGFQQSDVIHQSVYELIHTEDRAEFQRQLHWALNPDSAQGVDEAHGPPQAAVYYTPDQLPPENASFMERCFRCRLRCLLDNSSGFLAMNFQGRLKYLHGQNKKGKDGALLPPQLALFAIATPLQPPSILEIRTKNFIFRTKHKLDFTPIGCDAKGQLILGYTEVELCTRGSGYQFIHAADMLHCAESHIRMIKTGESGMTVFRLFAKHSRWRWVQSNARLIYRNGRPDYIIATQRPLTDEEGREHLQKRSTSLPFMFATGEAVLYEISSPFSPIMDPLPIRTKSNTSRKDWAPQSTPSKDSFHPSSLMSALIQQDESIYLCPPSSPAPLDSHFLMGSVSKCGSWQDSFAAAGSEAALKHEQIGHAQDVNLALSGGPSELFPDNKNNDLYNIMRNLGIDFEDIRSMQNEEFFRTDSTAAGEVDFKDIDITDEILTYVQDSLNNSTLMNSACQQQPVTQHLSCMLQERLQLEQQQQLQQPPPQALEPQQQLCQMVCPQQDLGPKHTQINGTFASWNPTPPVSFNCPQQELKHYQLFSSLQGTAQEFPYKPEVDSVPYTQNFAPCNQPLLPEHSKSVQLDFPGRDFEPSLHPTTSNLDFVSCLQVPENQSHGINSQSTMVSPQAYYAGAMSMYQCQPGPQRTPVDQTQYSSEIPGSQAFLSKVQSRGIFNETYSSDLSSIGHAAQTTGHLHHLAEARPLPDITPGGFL
Excerpt: 3-MC binding to AhR. […] 3-methylcholanthrene (3-MC) to AhR.

donor CD4+ T cells = assay: Acute graft versus host model: Treg phenotype of alloactivated donor CD4+ T cells; assay type: in vivo, mouse; conditions: 10 mg/kg day 0 and day 1, day 2, p-value=0.05
Procedure: FIGS. 14a-14i show AHRL1 induces an AhR-dependent Treg phenotype by a mechanism that is mediated by the AhR in donor CD4+ T cells. The AhR-induced Tregs were identified as the CD4+CD25+CTLA-4+CD62L^low population of T cells. To determine if AHRL1 induced changes in donor CD4+ T cells, AHRL1 was compared with TCDD and the vehicle. On day 0, B6D2F1 host mice in groups of 5 were injected with CFSE-labeled C57BL/6 (H-2^b/b) T cells and given 15 mg/kg of AHRL1, 15 μg/kg of TCDD, or vehicle by i.p. injection. At 24 hours, an additional dose of 7 mg/kg of AHRL1 or vehicle was given. Mice that were treated with TCDD at the time of donor cell transfer were used as positive controls. Splenocytes were isolated on day 2 for phenotypic analysis of the alloresponsive (CFSE-diluted) donor CD4+ T cells. Splenocytes were harvested from the host mice and the CD4+ T cells were identified by flow cytometry.
On day 0, B6D2F1 host mice in groups of 5 were injected with donor T cells obtained from AhR^+/+ or AhR-deficient (AhR^−/−) C57BL/6 mice. Host mice were treated with 2 mg/kg of AHRL1 or vehicle immediately following donor cell transfer and again at 24 hours. […] Thus, the AhR in the CD4+ T cell is the primary target driving the AhR-Treg phenotype.
On day 0, B6D2F1 host mice in groups of 3-5 were injected with C57BL/6 T cells. Mice were immediately treated with 0 mg/kg, 0.4 mg/kg, 2 mg/kg, or 10 mg/kg of AHRL1 and again on day 1. On day 2, expression of markers associated with the AhR-Treg phenotype increased as the dose of AHRL1 increased. Further, dosing generally correlated with degree of activation of AhR as reflected by CYP1A1, CYP1B1, and AHRR expression in lymph nodes from the same mice. The asterisk (*) indicates a p-value of 0.05 relative to vehicle treatment.
FIGS. 16c and 16d show expression of phenotypic markers, CD25+ICOS+CD62L^low and CD25+CTLA-4+, associated with AhR-Tregs in mice treated with AHRL1. Host mice were treated with 10 mg/kg of AHRL1, 11-Cl-BBQ analog, or vehicle on day 0 and day 1 following donor cell transfer. On day 2, the alloactivated CD4+ donor T cells were identified based on CFSE dilution. The percentage of donor cells in each group expressing the Treg markers were derived from flow histograms. The data represents mean±SEM of 5 mice per treatment. […] Analog 1 is statistically different from AHRL1 and analog 4 (p-value=0.05). […], analog 1, and analog 4 are shown to be AhR ligands that are capable of inducing Tregs in vivo. Accordingly, analogs 1 and 4 are expected to have a similar therapeutic effect in a subject as AHRL1 by suppressing an autoimmune response. Additionally, analog 6, analog 7, and other analogs of 11-Cl-BBQ, that are found to be active AhR ligands using the disclosed screening method, are expected to induce Tregs and suppress CTL to provide treatment and/or prevention of immune-mediated diseases.

SMILES | XRE-luciferase reporter activity, in words (AhR [1]) | in vivo serum half-life [2] | fold activation of AhR (reporter gene activity) (AhR [1]) | IC50 (AhR [3]) [µM] | expression of CD25+CTLA-4+ on alloactivated CD4+ donor T cells (donor CD4+ T cells) | expression of CD25+ICOS+CD62Llow on alloactivated CD4+ donor T cells (donor CD4+ T cells) | IC50, competitive inhibition of [3H] 3-MC binding to AhR (AhR [3]) | fold lower / less active than TCDD (AhR [3]) [fold]
O=c1c2cccc3cccc(c32)c2nc3ccc(Cl)cc3n12 [10-Cl-BBQ, 10-chloro-7H-benzimidazo[2,1-a]benzo[de]Iso-quinolin-7-one] | activate AhR | approximately two | – | – | – | – | – | –
O=c1c2cccc3cccc(c32)c2nc3cc(Cl)ccc3n12 [11-Cl-BBQ, 11-chloro-7H-benzimidazo[2,1-a]benzo[de]Iso-quinolin-7-one] | increased AhR reporter activity as compared to 10-Cl-BBQ alone | approximately two | – | – | – | – | – | –
O=c1c2cccc3cccc(c32)c2nc3ccccc3n12 [analog 1, 7H-Benzimidazo[2,1-a]benzo[de]isoquinolin-7-one] | – | – | 13 fold | 0.0137 | statistically different from vehicle | statistically different from vehicle | – | –
NN1C(=O)c2ccc3c(=O)n4c5ccc(Cl)cc5nc4c4ccc(c2c34)C1=O [analog 2, 2-Amino-10-chlorobenzimidazo[2,1-b]benzo[lmn][3,8]phenanthroline-1,3,6(2H)-trione] | – | – | did not induce reporter activity | – | – | – | inactive | –
O=c1c2ccc3ccc4cccc5cc(c2c3c45)c2nc3ccc(Cl)cc3n12 [analog 3, 11-Chloro-8H-benzimidazo[2,1-a]phenanthro[3,4,5-defg]isoquinolin-8-one] | – | – | 2 fold | 0.0773 | – | – | – | 10
O=c1c2ccc(Cl)c3cccc(c32)c2nc3cc(Cl)ccc3n12 [analog 4, 4,11-Dichloro-7H-benzimidazo[2,1-a]benzo[de]isoquinolin-7-one] | – | – | 19 fold | 0.0052 | statistically different from vehicle | statistically different from vehicle | – | –
O=C(O)c1ccc2c3c1cccc3c(=O)n1c3ccccc3nc21 [analog 5, 7-Oxo-7H-benzimidazo[2,1-a]benzo[de]isoquinoline-3-carboxylic acid] | – | – | did not induce reporter activity | 45.2 | – | – | – | 1000
